These results are taken from ChEMBL document CHEMBL1151887 (Bioorg Med Chem, 2009).

Experiment [1] deals with T1, Adenosine receptor A2a (Homo sapiens, UniProt P29274). Briefly: Displacement of [3H]CGS21680 from human recombinant adenosine A2a receptor expressed in HEK293 cells by liquid scintillation counting. The class given is cell-based. On the technique in general: In a radioligand displacement assay an active substance lowers the binding of a labelled ligand.
Experiment [2] has as its target T2, Adenosine receptor A3 (Homo sapiens, UniProt P0DMS8).
T2 sequence (P0DMS8 whole entry): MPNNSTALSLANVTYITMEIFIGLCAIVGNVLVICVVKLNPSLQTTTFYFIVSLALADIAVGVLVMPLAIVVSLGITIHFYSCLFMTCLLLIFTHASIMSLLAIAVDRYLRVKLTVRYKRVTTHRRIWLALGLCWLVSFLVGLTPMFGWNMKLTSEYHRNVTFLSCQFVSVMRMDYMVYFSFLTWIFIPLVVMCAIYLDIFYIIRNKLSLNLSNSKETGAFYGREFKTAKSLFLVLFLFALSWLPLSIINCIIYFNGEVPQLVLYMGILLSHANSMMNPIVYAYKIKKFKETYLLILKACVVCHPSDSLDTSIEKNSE
The experiment is described as follows: Displacement of [125I]I-AB-MECA from human recombinant adenosine A3 receptor expressed in CHO cells by liquid scintillation counting.

Experiment [3] addresses T3, Adenosine receptor A1 (Homo sapiens) (UniProt P30542).
T3 sequence (whole entry): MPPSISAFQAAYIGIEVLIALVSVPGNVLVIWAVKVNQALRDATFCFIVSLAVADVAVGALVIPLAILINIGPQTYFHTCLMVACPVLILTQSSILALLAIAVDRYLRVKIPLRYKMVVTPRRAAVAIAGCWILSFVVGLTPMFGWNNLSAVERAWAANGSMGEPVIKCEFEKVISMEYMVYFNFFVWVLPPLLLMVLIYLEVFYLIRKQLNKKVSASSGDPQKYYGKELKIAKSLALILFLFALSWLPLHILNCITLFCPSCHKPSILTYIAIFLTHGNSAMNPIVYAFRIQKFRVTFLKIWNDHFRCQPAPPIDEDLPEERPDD
Briefly: Displacement of [3H]NECA from human recombinant adenosine A1 receptor expressed in CHO cells at 10 uM by liquid scintillation counting. The class given is cell-based.

Experiment [4] has as its target T4, Adenosine receptor A3 (Rattus norvegicus, UniProt P28647).
T4 sequence (P28647 whole entry): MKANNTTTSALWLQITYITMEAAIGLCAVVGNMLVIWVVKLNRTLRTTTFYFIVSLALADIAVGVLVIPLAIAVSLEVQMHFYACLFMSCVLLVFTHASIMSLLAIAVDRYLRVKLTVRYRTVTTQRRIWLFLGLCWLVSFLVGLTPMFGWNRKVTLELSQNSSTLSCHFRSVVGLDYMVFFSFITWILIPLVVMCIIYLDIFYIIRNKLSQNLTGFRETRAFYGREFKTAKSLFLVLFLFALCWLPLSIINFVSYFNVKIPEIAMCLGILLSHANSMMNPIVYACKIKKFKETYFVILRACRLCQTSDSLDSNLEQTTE
Briefly: Binding affinity to rat adenosine A3 receptor.

Experiment [5] addresses T1, Adenosine receptor A2a. Briefly: Displacement of [3H]CGS21680 from human recombinant adenosine A2a receptor expressed in HEK293 cells at 10 uM by liquid scintillation counting. The class given is cell-based.

T1 sequence (P29274 whole entry): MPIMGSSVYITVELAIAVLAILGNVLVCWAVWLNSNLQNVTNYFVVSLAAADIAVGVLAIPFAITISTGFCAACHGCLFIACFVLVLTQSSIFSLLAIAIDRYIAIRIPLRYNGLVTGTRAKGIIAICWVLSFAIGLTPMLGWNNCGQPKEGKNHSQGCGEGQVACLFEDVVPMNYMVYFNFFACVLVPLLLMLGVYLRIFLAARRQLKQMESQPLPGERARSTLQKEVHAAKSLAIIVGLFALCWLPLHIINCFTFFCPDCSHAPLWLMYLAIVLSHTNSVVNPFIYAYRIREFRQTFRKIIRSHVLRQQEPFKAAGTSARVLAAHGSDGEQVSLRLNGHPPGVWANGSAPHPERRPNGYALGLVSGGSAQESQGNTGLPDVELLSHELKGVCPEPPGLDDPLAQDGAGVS

Regarding `O[C@@H]1[C@H](O)CO[C@H]1n1cnc2c(NCc3cccc(Cl)c3)ncnc21`, the Ki (commonly the dissociation constant of the complex between target and ligand, obtained from inhibition or displacement) was 3.41 µM on Adenosine receptor A2a [1] and 0.0761 µM at Adenosine receptor A3 [2].
As to `O[C@@H]1[C@H](O)CO[C@H]1n1cnc2c(NCc3cccc(F)c3)ncnc21`, the inhibition (in general, how much of the control response was suppressed) in experiment [3] was 36%. Further, the figures for the inhibitory constant (Ki) at Adenosine receptor A2a [1] and at Adenosine receptor A3 [2] were 6.56 µM and 0.537 µM, respectively.
On to `O[C@@H]1[C@H](O)CO[C@H]1n1cnc2c(NCc3cccc(Br)c3)nc(Cl)nc21`, for which, at Adenosine receptor A3 [4], the inhibition constant Ki was 0.0828 µM. Also, the inhibition at Adenosine receptor A2a [5] was 30%.
For `O[C@@H]1[C@H](O)CO[C@H]1n1cnc2c(NCc3cccc(I)c3)ncnc21`, the inhibitory constant (Ki) was found to be 0.997 µM at Adenosine receptor A2a [1] and 0.0902 µM at Adenosine receptor A3 [2].
The like results for `O[C@@H]1[C@H](O)CO[C@H]1n1cnc2c(NCc3cccc(Cl)c3)nc(Cl)nc21` were, in that order, 3.63 µM and 0.075 µM.
Regarding `CNc1ncnc2c1ncn2[C@@H]1OC[C@@H](O)[C@H]1O`, the values for the inhibition (in experiment [3]; on Adenosine receptor A2a [5]) were 44% and 25%, respectively. Further, at Adenosine receptor A3 [2], the inhibition constant Ki is 0.0701 µM.
For the compound `O[C@@H]1[C@H](O)CO[C@H]1n1cnc2c(NCc3cccc(Br)c3)ncnc21`, the Ki on Adenosine receptor A2a [1] amounted to 1.4 µM; on Adenosine receptor A3 [2], 0.059 µM.
As to `O[C@@H]1[C@H](O)CO[C@H]1n1cnc2c(NCc3cccc(F)c3)nc(Cl)nc21`, the values for the inhibition (in experiment [3]; at Adenosine receptor A2a [5]) were 43% and 42%, respectively. On Adenosine receptor A3 [2], the Ki came to 0.284 µM.
With `O[C@@H]1[C@H](O)CO[C@H]1n1cnc2c(NCc3cccc(I)c3)nc(Cl)nc21`, on Adenosine receptor A2a [5], the inhibition was found to be 43%.
`CNc1nc(Cl)nc2c1ncn2[C@@H]1OC[C@@H](O)[C@H]1O`: the inhibition worked out at 49% in experiment [3] and 15% on Adenosine receptor A2a [5]. For the same compound, at Adenosine receptor A3 [2], the Ki came to 0.0375 µM.
